Source: US12172959B2, “Mono- or di-substituted indole derivatives as dengue viral replication inhibitors” (priority 2015, dated 2024)

Assay: Chiral stability at pH 7.4 (enantiomeric excess by Chiral SFC after incubation)
Type: physicochemical
Conditions: 5 μM
Protocol: The chiral stability of Enantiomer 1A (R=OMe) was evaluated by determination of the enantiomeric excess (ee %) after incubation for 24 h and 48 h in a buffered solution at pH 7.4 at 40° C. and 60° C. To assess the influence of the methoxy-substituent of Enantiomer 1A (R=OMe) on the stability against racemization, the chiral stability of Enantiomer 1′A (R=H) was tested under the same conditions. To this end, 5 μM buffered (pH=7.4) solutions of 1A and 1′A were prepared by mixing 25 μL of a 100 μM solution of 1A or 1′A in DMSO with 475 μL aqueous buffer pH 7.4. Samples were taken 24 h and 48 h after incubation at 40° C. and 60° C. The analytical samples were analyzed by Chiral SFC (MS detection) and the chiral purity was expressed as the enantiomeric excess (ee %=% enantiomer A−% enantiomer B).

COc1cc(NC(C(=O)c2c[nH]c3cc(F)ccc23)c2ccc(Cl)cc2OC)cc(S(C)(=O)=O)c1 (single isomer, unassigned) [Compound 1A, 2-(4-chloro-2-methoxyphenyl)-1-(6-fluoro-1H-indol-3-yl)-2-((3-methoxy-5-(methylsulfonyl)phenyl)amino)ethanone]
ee % (buffered solution pH 7.4, 40° C., 24 h): 100% | ee % (buffered solution pH 7.4, 40° C., 48 h): 100% | ee % (buffered solution pH 7.4, 60° C., 24 h): 95% | ee % (buffered solution pH 7.4, 60° C., 48 h): 88%
